Measured values taken from the Kinase Knowledgebase extract (Sharma et al. 2016).

Target: EGFR (human) (UniProt P00533)
Sequence (P00533 whole entry, looked up): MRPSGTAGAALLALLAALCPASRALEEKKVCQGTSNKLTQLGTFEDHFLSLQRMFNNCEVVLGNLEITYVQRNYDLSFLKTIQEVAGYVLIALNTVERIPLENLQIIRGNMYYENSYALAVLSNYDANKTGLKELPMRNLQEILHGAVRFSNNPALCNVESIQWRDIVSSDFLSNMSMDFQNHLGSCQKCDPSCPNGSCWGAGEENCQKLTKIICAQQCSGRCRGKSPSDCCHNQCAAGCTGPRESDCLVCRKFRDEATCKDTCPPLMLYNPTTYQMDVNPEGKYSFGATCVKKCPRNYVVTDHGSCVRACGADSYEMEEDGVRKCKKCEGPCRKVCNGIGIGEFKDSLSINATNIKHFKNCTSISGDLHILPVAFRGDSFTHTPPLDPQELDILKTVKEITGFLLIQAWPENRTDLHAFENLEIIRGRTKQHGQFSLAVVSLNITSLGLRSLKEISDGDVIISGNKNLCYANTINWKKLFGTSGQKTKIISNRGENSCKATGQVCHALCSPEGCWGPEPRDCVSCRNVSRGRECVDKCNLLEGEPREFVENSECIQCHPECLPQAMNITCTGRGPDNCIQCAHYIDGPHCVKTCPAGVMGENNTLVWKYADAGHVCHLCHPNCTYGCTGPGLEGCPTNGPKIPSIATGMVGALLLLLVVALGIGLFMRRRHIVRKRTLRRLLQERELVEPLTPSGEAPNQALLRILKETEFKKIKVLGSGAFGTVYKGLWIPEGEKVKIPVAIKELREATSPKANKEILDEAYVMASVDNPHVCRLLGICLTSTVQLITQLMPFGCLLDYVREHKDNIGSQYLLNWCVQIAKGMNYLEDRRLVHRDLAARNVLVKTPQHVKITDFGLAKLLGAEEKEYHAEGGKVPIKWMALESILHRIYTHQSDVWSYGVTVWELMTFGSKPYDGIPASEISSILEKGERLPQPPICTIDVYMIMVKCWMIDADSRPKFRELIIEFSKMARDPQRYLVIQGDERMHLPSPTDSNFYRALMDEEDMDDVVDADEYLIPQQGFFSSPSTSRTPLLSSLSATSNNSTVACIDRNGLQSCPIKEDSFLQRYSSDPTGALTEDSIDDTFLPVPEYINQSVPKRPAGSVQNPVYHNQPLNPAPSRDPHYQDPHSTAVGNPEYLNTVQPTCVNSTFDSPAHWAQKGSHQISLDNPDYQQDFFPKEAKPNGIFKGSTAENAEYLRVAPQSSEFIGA

| Structure (SMILES) | IC50 [µM] |
| --- | --- |
| Cc1ccc(C(=O)Nc2ccccc2)c(O)c1 | > 50 |
| O=C(Nc1ccccc1)c1ccccc1O | > 50 |
| Cc1ccc(C(=O)Nc2ccc(Cl)cc2)c(O)c1 | > 50 |
| Cc1ccc(C(=O)Nc2ccc(F)cc2F)c(O)c1 | > 50 |
| O=C(Nc1ccc(F)cc1)c1cc(Br)cc(Br)c1O | > 50 |

Second part, the compound after the results:

| IC50 [µM] | Structure (SMILES) |
| --- | --- |
| > 50 | O=C(Nc1ccc(Br)cc1)c1ccccc1O |
| > 50 | O=C(Nc1ccc(F)cc1)c1cc(I)ccc1O |
| > 50 | Cc1ccc(C(=O)Nc2ccc(C(C)C)cc2)c(O)c1 |
| > 50 | O=C(Nc1ccc(F)cc1F)c1ccccc1O |
| > 50 | O=C(Nc1ccc(F)cc1)c1ccccc1O |
